# “Also recorded” adds a separate entry of the source.
# Experiments:
# [1] = tested on: BC cell lines: non-muscle invasive (RT112) and muscle invasive (T24, BFTC905, HT1376) cells; test: in vitro screening of drug candidates on growth/proliferation of BC cell lines; type: cell-based; conditions: for proliferation rate of the BC cells (dose response curves): FIG. 2; for cell growth of BC cells: in vitro, panel of BC cell lines RT112, T24, BFTC905, HT1376
# Experimental: The impact of the drug candidates onto the malignant phenotype of BC cells was assessed in vitro in a panel of multi-origin BC cell lines representing different stages during disease progression. These included non-muscle invasive (RT112) and muscle invasive (T24, BFTC905, HT1376) cells.
# Accordingly, these compounds were selected for further investigation, here providing the response curves for four different BC cell lines. Representative response curves of the seven compounds are presented in FIG. 2, along with the respective IC50s. A clear impact was observed on the proliferation of the BC cells for all seven compounds.
# FIG. 2. The dose response curves of cephaeline (i-ii), exemestane (iii-iv) and 1,4 chrysenequinone (v-vi) in the BC cell lines RT112, T24, HT1376 and BFTC905. The dose response curves of fluvoxamine (vii), amiodarone (viii), isradipine (ix) and amodiaquine (x) in the RT112 cells are also provided.
# BFTC905 xenograft = BFTC905 xenograft mouse model; type: in vivo, NOD/SCID male mice; conditions: start three days after cell injection, observed at least 17 days, vs DMSO control
# Experimental: In vivo testing of exemestane, cephaeline and 1,4 chrysenequinone was performed in xenograft mouse models. Particularly, the model was established after injecting […] BFTC905 cells subcutaneously into the tail base of NOD/SCID male mice. Male mice were selected for these experiments since males are more prone to develop BC. The treatments started three days after the injections of the cancer cells. The treatment scheme was 30 mg/kg/every 3rd day for exemestane, 5 mg/kg/daily for cephaeline and 5 mg/kg/daily for 1,4 chrysenequinone. As controls were used animals injected with DMSO diluted in PBS (at a final concentration similar to the one of the compounds).
# FIG. 3. The impact of cephaeline, exemestane and 1,4 chrysenequinone in vivo in BFTC905 xenograft mouse models.
# [2] = BC cell lines RT112, T24, HT1376 and BFTC905
SMILES,"proliferation rate of the BC cells (dose response curves) [1, 2]",cell growth of BC cells [1],impact on tumor establishment or growth (BFTC905 xenograft; 30 mg/kg/every 3rd day),impact on tumor establishment or growth (BFTC905 xenograft; 5 mg/kg/daily),proliferation rate of the BC cells (dose response curves) ([1]; RT112 cells)
C=C1C[C@@H]2[C@H](CC[C@]3(C)C(=O)CC[C@@H]23)[C@@]2(C)C=CC(=O)C=C12 [exemestane],significantly decreased the proliferation rate,prevented cell growth at relatively low concentrations,clear impact on tumor establishment or growth; also recorded: significantly decreased tumor establishment or growth,–,–
"O=C1C=CC(=O)c2c1ccc1c2ccc2ccccc21 [1,4-chrysenequinone]",significantly decreased the proliferation rate,prevented cell growth at relatively low concentrations,–,no significant impact on tumour growth,–
CCN(CC)Cc1cc(Nc2ccnc3cc(Cl)ccc23)ccc1O [amodiaquine],–,prevented cell growth at relatively low concentrations,–,–,significantly decreased the proliferation rate
CCCCc1oc2ccccc2c1C(=O)c1cc(I)c(OCCN(CC)CC)c(I)c1 [amiodarone],–,prevented cell growth at relatively low concentrations,–,–,significantly decreased the proliferation rate
COC(=O)C1=C(C)NC(C)=C(C(=O)OC(C)C)C1c1cccc2nonc12 (centres unmarked) [isradipine],–,prevented cell growth at relatively low concentrations,–,–,significantly decreased the proliferation rate
COCCCC/C(=N\OCCN)c1ccc(C(F)(F)F)cc1 [fluvoxamine],–,prevented cell growth at relatively low concentrations,–,–,significantly decreased the proliferation rate

# Source: patent publication US20260245655A1, “METHODS FOR DETERMINING DRUG CANDIDATES” (MOSAIQUES DIAGNOSTICS AND THERAPEUTICS AG, priority 2023, published 2026)
